Columns and labels:
glucose oxidase = glucose oxidase (Aspergillus niger, UniProt P13006); experiment: Enzymatic activity of glucose oxidase in the presence of polyphenol and metal ions at different pH; assay type: biochemical
Protocol: Enzymatic activity of glucose oxidase was tested in the presence of polyphenol and metal ions from minerals at different pH. Polyphenol is known to be able to bind to enzymes and also form metal coordination with the metal ions.
The enzyme (e.g, glucose oxidase) was combined with different polyphenols (e.g., tannic acid, EGCG) and metal ions from different minerals (e.g., CaCl2, FeCl3, MgCl2, ZnCl2) in buffer solutions having two pH conditions. A buffer having a first pH condition of 3.5 was used to simulate juice buffer. A buffer having a second pH condition of 7 was used to simulate intestinal buffer. The effect of bile salt (an intrinsic compound found in the intestine) on enzymatic activity of glucose oxidase was also tested by incorporating it into the simulated pH 7 intestinal buffer. It should be noted that the enzyme in FIG. 4 is not limited to glucose oxidase, as described in this example. Any appropriate enzymes described elsewherein herein (e.g., inulosucrase, etc.) may be employed using the experimental design in FIG. 4 for sugar reduction.
The enzyme activity of glucose oxidase was measured by measuring the capability of glucose oxidase to convert glucose in different experimental conditions. […] It was hypothesized that at a pH of 7, polyphenol formed metal coordination complexes with metal ions and thus dissociated from the glucose oxidase.
A similar trend in […] was observed when a different polyphenol, EGCE, was used instead of tannic acid.

inulosucrase = molecular target: T1, inulosucrase (Lactobacillus gasseri, UniProt D3WYV9); experiment: Inhibition of inulosucrase enzymatic activity by tannic acid; assay type: biochemical
T1 sequence (D3WYV9 37-761): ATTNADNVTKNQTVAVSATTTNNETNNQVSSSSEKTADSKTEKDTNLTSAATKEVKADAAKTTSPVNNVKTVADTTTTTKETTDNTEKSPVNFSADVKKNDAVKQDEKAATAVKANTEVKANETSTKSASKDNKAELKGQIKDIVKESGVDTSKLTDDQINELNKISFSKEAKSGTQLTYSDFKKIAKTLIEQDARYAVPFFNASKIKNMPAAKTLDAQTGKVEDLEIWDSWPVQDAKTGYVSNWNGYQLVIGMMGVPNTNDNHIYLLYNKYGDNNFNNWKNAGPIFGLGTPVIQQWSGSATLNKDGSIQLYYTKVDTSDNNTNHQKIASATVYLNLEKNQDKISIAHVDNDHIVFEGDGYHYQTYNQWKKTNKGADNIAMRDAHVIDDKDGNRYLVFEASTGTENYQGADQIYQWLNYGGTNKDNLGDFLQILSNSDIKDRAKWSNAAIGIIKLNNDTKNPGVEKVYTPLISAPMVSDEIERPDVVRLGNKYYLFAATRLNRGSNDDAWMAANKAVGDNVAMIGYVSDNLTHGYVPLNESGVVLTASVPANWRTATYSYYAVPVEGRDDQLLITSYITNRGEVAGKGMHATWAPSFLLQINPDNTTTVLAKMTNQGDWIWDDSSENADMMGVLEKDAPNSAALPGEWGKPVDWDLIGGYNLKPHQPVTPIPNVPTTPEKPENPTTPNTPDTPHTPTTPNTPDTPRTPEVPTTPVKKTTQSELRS
Protocol: In addition to encapsulating the inulosucrase-nanocellulose complex, an inhibitor (e.g., tannic acid) could also be encapsulated together with the complex. The amount of tannic acid necessary to inhibit enzymatic activity of inulosucrase (while attached to nanocellulose) is shown in FIG. 19. […] The effect of inulosucrase in various food products were studied. Free inulosucrase (not attached to any substrate) was added to a beverage (e.g., Capri San®) and the concentration of various saccharides was measured after 10 minutes at room temperature and 37° C. (FIG. 20A). […] Additional data for other food products (e.g., chocolates) are illustrated in FIGS. 20B-20C.
The effect of tannic acid on enzymatic activity in various food products at different pH conditions was studied. Tannic acid was combined with an enzyme (e.g., inulosucrase) at 1:1 molar ratio to form tannic acid-enzyme (TA-Enz) complex. The TA-Enz complex was prepared at various pH levels (e.g., 3.5, 5.5) and tannic acid concentrations (e.g., 10 mM, 30 mM, 50 mM). The effect of TA-Enz complex in sucrose solution and apple juice was compared to that of free enzyme (enzyme not complexed with tannic acid). Residual sucrose of sucrose solution and apple juice was first monitored in the presence of TA-Enz complexes after an incubation time of 15 minutes.
Residual sucrose of sucrose solution and apple juice was also monitored in the presence of TA-Enz complexes after an incubation time of 24 hours (FIGS. 23A-23B).

[1] = pH 3.5 (simulated juice buffer), polyphenol with Mg^+2 (from MgCl2)
[2] = pH 7 (simulated intestinal buffer), polyphenol with Mg^+2
[3] = pH 7 with bile salt (0.2 wt %), polyphenol with Mg^+2

Chain of glucose oxidase (P13006 17-605, species assumed): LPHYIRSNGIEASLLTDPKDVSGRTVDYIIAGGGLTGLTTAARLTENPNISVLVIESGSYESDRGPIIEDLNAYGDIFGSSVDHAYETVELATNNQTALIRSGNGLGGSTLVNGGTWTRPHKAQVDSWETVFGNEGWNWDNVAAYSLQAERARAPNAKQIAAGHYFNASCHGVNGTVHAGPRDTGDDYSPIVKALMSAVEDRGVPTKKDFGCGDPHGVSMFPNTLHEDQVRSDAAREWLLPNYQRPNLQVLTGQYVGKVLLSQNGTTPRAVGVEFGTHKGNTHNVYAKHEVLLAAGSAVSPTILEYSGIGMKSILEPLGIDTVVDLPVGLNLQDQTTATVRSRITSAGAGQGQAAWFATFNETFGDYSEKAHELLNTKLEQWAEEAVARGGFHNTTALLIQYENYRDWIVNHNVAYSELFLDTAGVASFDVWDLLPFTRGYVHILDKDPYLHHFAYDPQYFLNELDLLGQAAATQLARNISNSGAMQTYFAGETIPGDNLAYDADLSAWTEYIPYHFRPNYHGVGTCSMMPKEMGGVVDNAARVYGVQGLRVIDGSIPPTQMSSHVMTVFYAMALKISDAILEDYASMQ

Row | SMILES | concentration at which glucose oxidase activity was significantly inhibited (glucose oxidase) | enzymatic activity of glucose oxidase (glucose oxidase; [1]) | enzymatic activity of glucose oxidase (glucose oxidase; [2]) | enzymatic activity of glucose oxidase (glucose oxidase; [3]) | inulosucrase activity after polyphenol inhibition (inulosucrase; in the presence of bile salts) | pH-dependent inhibition and reactivation of enzymatic activity (inulosucrase; low pH ˜3.5 vs higher pH ˜6.8) | enzymatic activity of inulosucrase (attached to nanocellulose) (inulosucrase; with increase in tannic acid concentration)
1 | O=C(OC[C@H]1O[C@@H](OC(=O)c2cc(O)c(O)c(OC(=O)c3cc(O)c(O)c(O)c3)c2)[C@H](OC(=O)c2cc(O)c(O)c(OC(=O)c3cc(O)c(O)c(O)c3)c2)[C@@H](OC(=O)c2cc(O)c(O)c(OC(=O)c3cc(O)c(O)c(O)c3)c2)[C@@H]1OC(=O)c1cc(O)c(O)c(OC(=O)c2cc(O)c(O)c(O)c2)c1)c1cc(O)c(O)c(OC(=O)c2cc(O)c(O)c(O)c2)c1 [tannic acid] | 1 µM | further inhibited | partially recovered | furthered recovered | reactivated in the presence of bile salts | repeated inhibition of enzymatic activity at low pH (e.g., pH˜3.5) and reactivation of enzymatic activity at higher pH (e.g., pH˜6.8) | reduction in enzymatic activity
2 | O=C(O[C@@H]1Cc2c(O)cc(O)cc2O[C@@H]1c1cc(O)c(O)c(O)c1)c1cc(O)c(O)c(O)c1 [EGCE, Epigallocatechin gallate] |  | prohibited its enzymatic activity | partially recovered | further enzymatic activity was recovered |  |  | 

Reference: patent US20240206516A1, “SYSTEMS AND METHODS FOR SUGAR-REDUCTION AND/OR FIBER PRODUCTION FOR FOOD AND OTHER APPLICATIONS” (President and Fellowa of Harvard College, priority 2021, published 2024)
